Assay results as given in paper PMC6013775, “Inhibition of the key enzyme of sialic acid biosynthesis by C6-Se modified N-acetylmannosamine analogs” (Chemical Science, 2016).
“Also recorded” adds a separate entry of the source. Blank lines part the entries; values can stand above or below the compound they belong to.

Columns and labels:
[1] = test system: UDP-GlcNAc-2-epimerase/MNK kinase; parameters: method as in PMID 12067740, PMID 15368395, PMID 22343627; settings: 300 μM; cited from earlier work
[2] = target: T1, human MNK (N-acetylmannosamine kinase) (Homo sapiens, UniProt Q9Y223); experiment: MNK activity, coupled optical assay based on NADH consumption; type: biochemical; settings: for IC50: purified human MNK, ManNAc 125 μM, ATP, means ± SEM, read-out: IC50 for MNK inhibition
T1 construct: His; made in house; host or cells: Escherichia coli BL21-CodonPlus (DE3)-RIL
T1 sequence (Q9Y223 406-722 limits assumed): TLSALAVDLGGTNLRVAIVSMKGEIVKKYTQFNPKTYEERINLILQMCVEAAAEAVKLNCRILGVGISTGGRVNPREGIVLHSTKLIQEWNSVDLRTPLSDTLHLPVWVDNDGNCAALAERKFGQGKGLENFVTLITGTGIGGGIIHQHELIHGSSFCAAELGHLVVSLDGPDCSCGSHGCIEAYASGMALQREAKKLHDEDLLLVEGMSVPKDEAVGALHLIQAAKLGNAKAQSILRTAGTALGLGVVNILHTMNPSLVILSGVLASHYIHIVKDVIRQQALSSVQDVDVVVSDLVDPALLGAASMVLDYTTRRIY
Experimental: N-Acetylmannosamine kinase and N-acetylglucosamine kinase expression and […]
Human N-acetylmannosamine kinase (MNK) was expressed and purified using an established method.1 Therefore, his-tagged MNK was expressed in BL21-CodonPlus (DE3)-RIL Escherichia coli (Stragene). Purification was performed by Ni-NTA affinity chromatography, and subsequently size exclusion chromatography on a SuperdexTM HighLoad 16/600 column (GE Healthcare). […]
To evaluate their purity, protein samples were mixed with SDS-PAGE sample buffer, denatured at 90 °C for 1 min and separated by a 10% SDS-PAGE gel. Proteins were visualized with Coomassie G-250 staining solution (Biorad), and PageRuler Prestained Plus (Biorad) was used as a marker (Figure S1 ).
Figure S1. SDS-PAGE of His-tagged MNK (His-MNK) and GST-tagged GNK
(GST-GNK) after affinity chromatography and size exclusion chromatography.
Apparent molecular masses given by the marker are indicated on the left side.
1 J. Martinez, L. D. Nguyen, S. Hinderlich, R. Zimmer, E. Tauberger, W. Reutter, W. Saenger, H. Fan
2 W.A. Weihofen, M. Berger, H. Chen, W. Saenger, and S. Hinderlich, J. Mol. Biol., 2006, 364, 388.
(1 picture or pasted object on this page, not shown here)
Enzyme activity and inhibition studies using N-acetylmannosamine kinase, N-acetylglucosamine kinase and yeast hexokinase
Evaluation MNK activity in presence of the compounds 11, 12, 14b, 16b and 18b The effects of compounds 11, 12, 14b, 16b, or 18b on MNK enzyme activity were evaluated using a coupled optical assay. 55 µl reaction mixture contained the following buffers and reagents: 39.5 µl buffer A (65 mM MgCl2, 200 mM Tris-HCl, pH 8.1), 5 µl ATP (50 mM), 3.5 µl NADH (30 mM), 2 µl phosphoenolpyruvate (100 mM), 2 U pyruvate-kinase, 2 U lactate-dehydrogenase, 5 µl ManNAc of varying concentrations. Subsequently, 10 µl of the compounds 11, 12, 14b, 16b and 18b were added in varying concentrations. The reaction was initiated by adding 0.6 µg MNK in 35 µL buffer B (10 mM Tris-HCl, 150 mM NaCl, pH 8.0). Samples were incubated at 37°C. Spectrophotometric measurements of NADH concentration was performed at 340 nm. Results obtained were normalized to blanks, consisting of 55 µl reaction mixture, 10 µl H 2O and 35 µl buffer B without MNK.
GNK and hexokinase inhibition assays using compound 14b
To evaluate the specificity of the inhibitor 14b towards other sugar kinases, we performed further inhibition experiments using human GNK and hexokinase (HK) from yeast (Sigma, H-5000). 39.5 µl Buffer A (see above), 5 µl ATP (50 mM), 3.5 µl NADH (30 mM), 2 µl phosphoenolpyruvate (100 mM), 2 U pyruvate-kinase, 2 U lactate-dehydrogenase, 5 µl GlcNAc (7.5 mM, for GNK experiments), or 5 µl ManNAc (7.5 mM, for GNK experiments), or glucose (5 mM, for HK experiments), and 10 µl 14b (varying concentrations) were mixed with either 1 µg GNK or 0.2 µg HK in 35 µL buffer B. The decrease of NADH was measured in a spectrophotometer […]
5 mM for HK activity, respectively (Figure S2).
Figure S2. Inhibition of GNK and HK activity by 14b. Values are means ± SEM of […]

HepG2 cells = test system: HepG2 cells; parameters: method as in PMID 1312935; settings: 1 mM final concentration; cited from earlier work
Jurkat cells [3] = experiment: Cell surface sialylation, 6'-sialyl-LacNAc by FITC-PSL flow cytometry; type: cell-based; settings: 72 h
purified ManNAc kinase = test system: purified ManNAc kinase; parameters: method as in PMID 12067740, PMID 15368395, PMID 22343627; settings: 5 mM final concentration; cited from earlier work
Jurkat cells [4] = settings: human, 72 h, 100 μM
cell surface sialylation = test system: cell surface sialylation; parameters: method as in PMID 25278018; settings: 500 μM final concentration in culture medium; cited from earlier work

Structure (SMILES): CC(=O)NC1C(OP(=O)(O)OP(=O)(O)OCC(C=O)OC(C=O)n2ccc(=O)[nH]c2=O)OC(CO)C(O)C1O (stereo not drawn) [Compound 7, 2′,3′-dialdehydo-UPD-N-acetylglucosamine]
inhibition of the enzyme [1]: 93%

IC50 [2]: 3 mM
Structure (SMILES): CC(=O)N[C@@H]1C(O)O[C@H](C[Se]C[C@H]2OC(O)[C@@H](NC(C)=O)[C@@H](O)[C@@H]2O)[C@@H](O)[C@@H]1O (stereo partly drawn) [Compound 16b]

IC50 [2]: > 10 mM
Structure (SMILES): CC(=O)N[C@@H]1C(O)O[C@H](CS)[C@@H](O)[C@@H]1O (stereo partly drawn) [Compound 11]

Structure (SMILES): CO[C@H]1[C@H](O)[C@@H](CO)OC(O)[C@@H]1NC(C)=O (stereo partly drawn) [Compound 1, 3-O-methyl-N-acetyl-glucosamine]
reduction of incorporation rate of N-GlcNAc and N-ManNAc into glycoproteins (HepG2 cells): 70%

Structure (SMILES): CC(=O)N[C@@H]1C(OC(C)=O)O[C@H](C[Se]C[C@H]2OC(OC(C)=O)[C@@H](NC(C)=O)[C@@H](OC(C)=O)[C@@H]2OC(C)=O)[C@@H](OC(C)=O)[C@@H]1OC(C)=O (stereo partly drawn) [Compound 16a]
effect on cell surface sialylation (Jurkat cells [3]; tested concentrations up to 50 μM): no visible effect; also recorded: did not alter cell surface sialylation

Structure (SMILES): CC(=O)NC1C(O)OC(COC(C)=O)C(O)C1O (stereo not drawn) [Compound 3, 6-O-Ac-ManNAc]
inhibition of the enzyme (purified ManNAc kinase): 60%

fold higher IC50 in comparison to 14b ([2]; MNK IC50 ratio): approximately 500 fold | IC50 [2]: 4.2 mM
Structure (SMILES): CC(=O)N[C@@H]1C(O)O[C@H](CSSC[C@H]2OC(O)[C@@H](NC(C)=O)[C@@H](O)[C@@H]2O)[C@@H](O)[C@@H]1O (stereo partly drawn) [Compound 12]

Structure (SMILES): CC(=O)N[C@@H]1C(OC(C)=O)O[C@H](C[Se][Se]C[C@H]2OC(OC(C)=O)[C@@H](NC(C)=O)[C@@H](OC(C)=O)[C@@H]2OC(C)=O)[C@@H](OC(C)=O)[C@@H]1OC(C)=O (stereo partly drawn) [Compound 14a]
reduction of cell viability (Jurkat cells [4]): approximately 70% | reduction of 6'-sialyl-LacNAc entity (Jurkat cells [3]; 50 μM in cell culture medium): approximately 85%

Structure (SMILES): COC1C(O)C(CO)OC(O)C1NC(C)=O (stereo not drawn) [Compound 2]
cell surface sialylation reduced to (cell surface sialylation): 20%

IC50 [2]: 1.9 mM
Structure (SMILES): CCCC[Se]C[C@H]1OC(O)[C@@H](NC(C)=O)[C@@H](O)[C@@H]1O (stereo partly drawn) [Compound 18b]
